Data reported in patent US8349870B2 (priority 2008, dated 2013).
Like-named read-outs stand apart in the source and are kept apart here.

Key:
Assay type in all cases: in vivo
Plasmopara viticola = test: Test A: grape downy mildew, spray after inoculation, visual disease rating (% disease control); conditions: 100 = 100% disease control, 0 = no control
From the text: General protocol for preparing test suspensions for Test A-C: The test compounds were first dissolved in acetone in an amount equal to 3% of the final volume and then suspended at the desired concentration (in ppm) in acetone and purified water (50/50 mix by volume) containing 250 ppm of the surfactant Trem® 014 (polyhydric alcohol esters). The resulting test suspensions were then used in Tests A-C. Spraying a 200 ppm test suspension to the point of run-off on the test plants was equivalent to a rate of 500 g/ha.
Grape seedlings were inoculated with a spore suspension of Plasmopara viticola (the causal agent of grape downy mildew) and incubated in a saturated atmosphere at 20° C. for 24 h. After a short drying period, the test suspension was sprayed to the point of run-off on the grape seedlings, which were then moved to a growth chamber at 20° C. for 5 days, after which time the grape seedling were placed back into a saturated atmosphere at 20° C. for 24 h. Upon removal, visual disease ratings were made.
Results for Tests A-C are given in Table A. In the table, a rating of 100 indicates 100% disease control and a rating of 0 indicates no disease control (relative to the controls). A dash (-) indicates no test results, “*” indicates compound was tested at 40 ppm and “**” indicates compound was tested at 10 ppm.

Phytophthora infestans [1] = conditions: tomato late blight, sprayed the day before inoculation
Phytophthora infestans [2] = conditions: tomato late blight, sprayed 17 h after inoculation
[3] = Cmpd No. unmarked, rate not stated in table (b1197 mentions a 200 ppm test suspension)

| Compound | Test A rating (% disease control) (Plasmopara viticola; "*" compound tested at 40 ppm) [%] | Test B rating (% disease control) (Phytophthora infestans [1]; "*" compound tested at 40 ppm) [%] | Test C rating (% disease control) (Phytophthora infestans [2]; "*" compound tested at 40 ppm) [%] | other results |
| --- | --- | --- | --- | --- |
| Cc1ccc(C)c(S(=O)(=O)NC(=O)N2CCC(c3nc(C4=NOC(c5ccccc5)C4)cs3)CC2)c1 (stereo not drawn) [compound 33] | 0 | 0 | 0 | – |
| CC(C)CC(O)C(=O)N1CCC(c2nc(C3=NOC(c4c(F)cccc4F)C3)cs2)CC1 (mixture of isomers) [compound 56] | 98 | 84 | 50 | – |
| CCOC(=O)CNC(=O)N1CCC(c2nc(C3=NOC(c4ccccc4)C3)cs2)CC1 (stereo not drawn) [compound 18] | 39 | 63 | 26 | – |
| methyl 4-[4-(4,5-dihydro-5-phenyl-3-isoxazoly)-2-thiazolyl]-N-(2,5-dimethylphenyl)-1-piperidinecarboximidate [Example 3] | 99 | 100 | 99 | – |
| CC(CC(=O)N1CCC(c2nc(C3=NOC(c4ccccc4F)C3)cs2)CC1)C(F)(F)F (stereo not drawn) [Example 6, 1-[4-[4-[4,5-dihydro-5-(2-fluorophenyl)-3-isoxazolyl]-2-thiazolyl]-1-piperidinyl]-4,4,4-trifluoro-3-methyl-1-butanone] | – | – | – | Test A rating (% disease control) (Plasmopara viticola; [3]): 0%; Test B rating (% disease control) (Phytophthora infestans [1]; [3]): 33%; Test C rating (% disease control) (Phytophthora infestans [2]; [3]): 0% |
| CCC(C)NC(=O)N1CCC(c2nc(C3=NOC(c4ccccc4)C3)cs2)CC1 (stereo not drawn) [compound 17] | 86 | 100 | 95 | – |
| CCCCC(O)C(=O)N1CCC(c2nc(C3=NOC(c4c(F)cccc4F)C3)cs2)CC1 (stereo not drawn) [compound 58] | – | 100 | 99 | – |
| Cc1ccc(C)c(N=C(C#N)N2CCC(c3nc(C4=NOC(c5ccccc5)C4)cs3)CC2)c1 (stereo not drawn) [compound 32] | 31 | 58 | 0 | – |
| O=C(CC1CCCC(C(F)(F)F)C1)N1CCC(c2nc(C3=NOC(c4c(F)cccc4F)C3)cs2)CC1 (stereo not drawn) [compound 76] | 66 | 67 | 0 | – |
| CC(C)NC(=O)N1CCC(c2nc(C3=NOC(c4ccccc4)C3)cs2)CC1 (stereo not drawn) [compound 15] | – | – | – | Test A rating (% disease control) (Plasmopara viticola; [3]): 86%; Test B rating (% disease control) (Phytophthora infestans [1]; [3]): 100%; Test C rating (% disease control) (Phytophthora infestans [2]; [3]): 91% |
| CCCCCCC(O)C(=O)N1CCC(c2nc(C3=NOC(c4c(F)cccc4F)C3)cs2)CC1 (stereo not drawn) [compound 61] | – | 100 | 47 | – |
| CCN(CC)C(=O)N1CCC(c2nc(C3=NOC(c4ccccc4)C3)cs2)CC1 (stereo not drawn) [compound 12] | – | – | – | Test A rating (% disease control) (Plasmopara viticola; [3]): 8%; Test B rating (% disease control) (Phytophthora infestans [1]; [3]): 40%; Test C rating (% disease control) (Phytophthora infestans [2]; [3]): 0% |
| 4-[4-(4,5-dihydro-5-phenyl-3-isoxazoly)-2-thiazolyl]-N-pentyl-1-piperidinecarboxamide [Example 4] | 86 | 100 | 76 | – |
| Cc1ccc(C)c(N=C(N)N2CCC(c3nc(C4=NOC(c5ccccc5)C4)cs3)CC2)c1 (stereo not drawn) [compound 23] | – | – | – | Test A rating (% disease control) (Plasmopara viticola; "**" compound tested at 10 ppm): 79%; Test B rating (% disease control) (Phytophthora infestans [1]; "**" compound tested at 10 ppm): 100%; Test C rating (% disease control) (Phytophthora infestans [2]; "**" compound tested at 10 ppm): 33% |
| CCNC(=O)N1CCC(c2nc(C3=NOC(c4ccccc4)C3)cs2)CC1 (stereo not drawn) [compound 13] | – | – | – | Test A rating (% disease control) (Plasmopara viticola; [3]): 57%; Test B rating (% disease control) (Phytophthora infestans [1]; [3]): 99%; Test C rating (% disease control) (Phytophthora infestans [2]; [3]): 0% |
| CC(C)C(O)C(=O)N1CCC(c2nc(C3=NOC(c4c(F)cccc4F)C3)cs2)CC1 (stereo not drawn) [compound 49] | 97 | 98 | 100 | – |

| Compound | Test A rating (% disease control) (Plasmopara viticola; "*" compound tested at 40 ppm) [%] | Test B rating (% disease control) (Phytophthora infestans [1]; "*" compound tested at 40 ppm) [%] | Test C rating (% disease control) (Phytophthora infestans [2]; "*" compound tested at 40 ppm) [%] | other results |
| --- | --- | --- | --- | --- |
| CCOC(=Nc1cc(C)ccc1C)N1CCC(c2nc(C3=NOC(c4ccccc4)C3)cs2)CC1 (stereo not drawn) [compound 29] | 92 | 99 | 80 | – |
| O=C(NC1CCCC1)N1CCC(c2nc(C3=NOC(c4ccccc4)C3)cs2)CC1 (stereo not drawn) [compound 19] | 67 | 100 | 63 | – |
| O=C(C(O)Cc1ccccc1)N1CCC(c2nc(C3=NOC(c4c(F)cccc4F)C3)cs2)CC1 (mixture of isomers) [compound 50] | 0 | 87 | 0 | – |
| O=C(C(=O)N1CCC(c2nc(C3=NOC(c4ccccc4F)C3)cs2)CC1)c1ccccc1 (stereo not drawn) [compound 45] | 0 | 0 | 0 | – |
| Cc1ccc(C)c(N=C(N(C)C)N2CCC(c3nc(C4=NOC(c5c(F)cccc5F)C4)cs3)CC2)c1 (stereo not drawn) [compound 38] | 8 | 33 | 0 | – |
| Cc1ccc(C)c(C(=O)C(=O)N2CCC(c3nc(C4=NOC(c5c(F)cccc5F)C4)cs3)CC2)c1 (stereo not drawn) [compound 52] | 100 | 100 | 96 | – |
| Cc1ccc(C)c(N=CN2CCC(c3nc(C4=NOC(c5ccccc5)C4)cs3)CC2)c1 (stereo not drawn) [Example 2, N-[[4-[4-(4,5-dihydro-5-phenyl-3-isoxazolyl)-2-thiazolyl]-1-piperidinyl]methylene]-2,5-dimethylbenzenamine] | – | – | – | Test A rating (% disease control) (Plasmopara viticola; [3]): 17%; Test B rating (% disease control) (Phytophthora infestans [1]; [3]): 88%; Test C rating (% disease control) (Phytophthora infestans [2]; [3]): 0% |
| O=C(C(=O)N1CCC(c2nc(C3=NOC(c4ccccc4F)C3)cs2)CC1)c1ccco1 (stereo not drawn) [compound 47] | 85 | 33 | 0 | – |
| CC(=O)OCC(=O)N1CCC(c2nc(C3=NOC(c4c(F)cccc4F)C3)cs2)CC1 (stereo not drawn) [compound 64] | 80 | 100 | 68 | – |
| CCC(O)C(=O)N1CCC(c2nc(C3=NOC(c4c(F)cccc4F)C3)cs2)CC1 (stereo not drawn) [compound 48] | 88 | 100 | 91 | – |
| N#CCC(=O)N1CCC(c2nc(C3=NOC(c4c(F)cccc4F)C3)cs2)CC1 (stereo not drawn) [compound 63] | 94 | 100 | 92 | – |
| Cc1ccc(C)c(N=C(N(C)C)N2CCC(c3nc(C4=NOC(c5ccccc5)C4)cs3)CC2)c1 (stereo not drawn) [compound 24] | 79 | 97 | 39 | – |
| O=C(C(O)C(F)(F)F)N1CCC(c2nc(C3=NOC(c4c(F)cccc4F)C3)cs2)CC1 (stereo not drawn) [compound 53] | – | 100 | 95 | – |
| CC(C)C(O)C(=O)N1CCC(c2nc(C3=NOC(c4c(F)cccc4F)C3)cs2)CC1 (mixture of isomers) [compound 54] | – | 100 | 99 | – |
| CCC(=O)C(=O)N1CCC(c2nc(C3=NOC(c4c(F)cccc4F)C3)cs2)CC1 (stereo not drawn) [compound 66] | – | 100 | 99 | – |
| CC(C)CC(O)C(=O)N1CCC(c2nc(C3=NOC(c4c(F)cccc4F)C3)cs2)CC1 (stereo not drawn) [compound 57] | – | 100 | 97 | – |
